Experiment [1] concerns the target SUMO activating enzyme (SAE, SUMO E1) (Homo sapiens, UniProt Q9UBT2). In words: AlphaScreen in vitro SUMOylation assay. Type of experiment: biochemical.
Another experiment addresses SUMO E1 (Homo sapiens, UniProt Q9UBT2). In words: Dialysis of inhibited SUMO E1 followed by SUMOylation assay. Type of experiment: biochemical. The conditions noted are these: no enzyme activity up to 8 hours of dialysis.
The target of experiment [2] is SAE2 (SUMO E1) Cys residues (Homo sapiens, UniProt Q9UBT2). Description: LC-MS/MS analysis of pepsin digest of SUMO E1 inhibited by COH000. It is filed as binding.
The subject of experiment [3] is SUMOylation in HCT-116 cells. Description: Western blot of SUMOylated proteins. Type of experiment: cell-based, human. Particulars: 18 hours treatment. A general note: Immunoblotting shows a protein as a band on a membrane.
The target in experiment [4] is T1, ubiquitin activating enzyme in HCT-116 cells (Homo sapiens, UniProt P22314).
T1 sequence (P22314 1-1058): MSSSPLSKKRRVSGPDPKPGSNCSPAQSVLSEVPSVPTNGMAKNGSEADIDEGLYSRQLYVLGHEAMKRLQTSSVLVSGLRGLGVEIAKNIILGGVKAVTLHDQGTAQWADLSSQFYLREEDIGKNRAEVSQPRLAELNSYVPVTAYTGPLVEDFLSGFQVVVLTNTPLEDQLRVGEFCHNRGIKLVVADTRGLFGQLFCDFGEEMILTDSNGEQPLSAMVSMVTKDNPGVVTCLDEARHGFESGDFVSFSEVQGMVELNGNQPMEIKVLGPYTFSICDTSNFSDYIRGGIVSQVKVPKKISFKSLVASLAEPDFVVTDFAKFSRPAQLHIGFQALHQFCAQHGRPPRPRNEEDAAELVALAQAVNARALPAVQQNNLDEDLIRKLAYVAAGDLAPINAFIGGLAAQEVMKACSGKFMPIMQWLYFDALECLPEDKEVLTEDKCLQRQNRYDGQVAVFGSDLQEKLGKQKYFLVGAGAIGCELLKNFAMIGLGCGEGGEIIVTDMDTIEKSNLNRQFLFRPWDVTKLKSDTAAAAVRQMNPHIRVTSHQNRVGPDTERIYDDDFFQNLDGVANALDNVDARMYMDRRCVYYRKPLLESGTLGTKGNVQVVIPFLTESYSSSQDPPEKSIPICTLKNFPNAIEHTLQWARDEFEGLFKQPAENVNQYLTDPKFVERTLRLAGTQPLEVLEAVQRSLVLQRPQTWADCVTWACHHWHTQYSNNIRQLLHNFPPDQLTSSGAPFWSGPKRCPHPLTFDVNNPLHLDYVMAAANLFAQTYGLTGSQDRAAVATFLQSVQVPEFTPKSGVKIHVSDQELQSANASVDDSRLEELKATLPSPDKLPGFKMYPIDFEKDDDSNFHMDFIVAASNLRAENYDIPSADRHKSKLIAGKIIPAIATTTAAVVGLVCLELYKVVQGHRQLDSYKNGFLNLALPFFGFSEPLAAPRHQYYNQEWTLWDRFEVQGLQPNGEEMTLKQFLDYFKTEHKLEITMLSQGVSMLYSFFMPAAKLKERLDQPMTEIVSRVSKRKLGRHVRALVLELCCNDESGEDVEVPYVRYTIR
In words: Western blot of ubiquitin•Ubc5 thioester formation in cells. Type of experiment: cell-based. The conditions noted are these: HCT-116 cell lysates.

For experiment [5], the system named is miR-34b and c-Myc in lymphoma (Raji) and colorectal cancer (HCT116) cells. Description: RT-qPCR and Western blot of miR-34b and c-Myc in cancer cell lines. Type of experiment: cell-based, human. A general note: In qPCR the cycle at which signal appears reflects the starting amount.
Experiment [6] relates to primary colorectal tumor cells from PDX. Description: Primary colorectal tumor cells from patient-derived xenograft tissues. It is filed as cell-based, human. Background: A xenograft is tissue or cells of one species grown in another, often human tumour cells in immunodeficient mice.
The target of another experiment is SAE2 in HCT116 cells (Homo sapiens, UniProt Q9UBT2). Description: Cellular thermal shift assay. The conditions noted are these: 2 hours at 37°C, 42–56°C.

pIC50: −log10 of the molar value.

What is called pIC50 is the IC50 on a negative log10 scale, so that one unit is a factor of ten. Low readings indicate a large IC50, high ones a small IC50.

Chain of SUMO activating enzyme (SAE, SUMO E1) (Q9UBT2 whole entry): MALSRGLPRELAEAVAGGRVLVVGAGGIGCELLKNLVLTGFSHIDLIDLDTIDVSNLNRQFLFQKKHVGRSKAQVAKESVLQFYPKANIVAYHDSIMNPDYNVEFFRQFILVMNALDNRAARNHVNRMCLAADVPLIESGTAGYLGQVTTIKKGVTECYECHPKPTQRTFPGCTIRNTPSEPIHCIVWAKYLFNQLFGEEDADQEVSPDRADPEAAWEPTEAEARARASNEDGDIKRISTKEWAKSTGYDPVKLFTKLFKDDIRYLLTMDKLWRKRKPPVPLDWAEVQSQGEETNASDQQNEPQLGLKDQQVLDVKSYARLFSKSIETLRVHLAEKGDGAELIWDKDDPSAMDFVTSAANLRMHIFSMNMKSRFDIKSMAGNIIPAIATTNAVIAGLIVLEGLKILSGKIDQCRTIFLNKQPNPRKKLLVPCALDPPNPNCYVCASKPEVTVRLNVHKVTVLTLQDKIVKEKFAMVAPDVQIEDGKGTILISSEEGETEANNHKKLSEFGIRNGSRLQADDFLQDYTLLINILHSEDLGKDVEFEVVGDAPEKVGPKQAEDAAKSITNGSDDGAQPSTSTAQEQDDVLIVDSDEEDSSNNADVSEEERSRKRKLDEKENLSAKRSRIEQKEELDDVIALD
Chain of SUMO activating enzyme (SAE, SUMO E1) (Q9UBE0 whole entry partner): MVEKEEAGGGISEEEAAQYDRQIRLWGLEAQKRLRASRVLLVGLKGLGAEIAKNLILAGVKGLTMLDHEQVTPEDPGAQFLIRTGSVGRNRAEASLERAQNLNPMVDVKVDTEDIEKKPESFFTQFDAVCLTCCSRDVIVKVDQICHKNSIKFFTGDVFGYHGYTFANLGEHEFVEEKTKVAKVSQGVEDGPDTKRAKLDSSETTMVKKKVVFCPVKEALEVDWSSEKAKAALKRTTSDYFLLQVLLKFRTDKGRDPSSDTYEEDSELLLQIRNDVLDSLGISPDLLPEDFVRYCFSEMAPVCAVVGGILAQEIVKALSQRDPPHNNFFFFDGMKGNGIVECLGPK
Chain of SAE2 (SUMO E1) Cys residues (Q9UBT2 whole entry): as the sequence (Q9UBT2 whole entry) above
Chain of SAE2 (SUMO E1) Cys residues (Q9UBE0 whole entry partner): as the sequence (Q9UBE0 whole entry partner) above
Chain of SUMO E1 (Q9UBT2 whole entry): as the sequence (Q9UBT2 whole entry) above
Chain of SUMO E1 (Q9UBE0 whole entry partner): as the sequence (Q9UBE0 whole entry partner) above
Chain of SAE2 in HCT116 cells (Q9UBT2 whole entry): as the sequence (Q9UBT2 whole entry) above
Chain of SAE2 in HCT116 cells (Q9UBE0 whole entry partner): as the sequence (Q9UBE0 whole entry partner) above

In experiment [1], `COC(=O)C1=C(C(=O)OC)C2([C@@H](Cc3ccc(C)cc3)Nc3ccccc3)C=CC1O2` (stereo partly drawn) [COH000, dimethyl 1-((R)-1-(phenylamino)-2-(p-tolyl)ethyl)7-oxabicyclo[2.2.1]hepta-2,5-diene-2,3-dicarboxylate] showed a negative-log IC50 (pIC50) of approximately 6.70. Further, the “selectivity for SUMOylation than ubiquitylation” value in experiment [1] (SUMOylation vs Ubc13-mediated poly-ubiquitylation) is reported as “over 500 fold”. In addition, the “reversibility of SUMO E1 inhibition” value on SUMO E1 is on record as “irreversible”. For the same molecule, the “modification of catalytic Cys173 of SAE2” value in experiment [2] (full inhibition by the compound) is given as “did not modify Cys173”. The “labeling of SAE2 Cys30 by intact mass” value in experiment [2] (full inhibition, >10 fold excess for > 1 h) was found to be 100%. Moreover, the SUMOylation in cells result in experiment [3] is listed as “inhibited SUMOylation in a dose-dependent manner”. Besides, the “ubiquitin•Ubc5 thioester formation in cells” value in experiment [4] is “did not inhibit the homologous enzymes catalyzing ubiquitylation or NEDDylation”. Moreover, in experiment [5] (2 days of treatment, RT-qPCR), the miR-34b expression entry is on record as “increased the expression of miR-34b”. Moreover, the “c-Myc mRNA and protein levels” value in experiment [5] (RT-qPCR and Western blot) was “reduced c-Myc mRNA and protein levels”. Further, in experiment [6], the “cancer cell viability in primary colorectal PDX samples” value is reported as “decreased cancer cell viability”. In addition, the “apoptosis in primary colorectal PDX samples” value in experiment [6] (48 h treatment) is listed as “induced apoptosis”. Moreover, the “c-Myc level, samples from Patient #2 and #3” value in experiment [6] (higher c-Myc levels) was “showed reduced c-Myc levels”. Further, the “c-Myc level, sample from Patient #1” value in experiment [6] (lowest c-Myc level among the three samples) was “did not show much further reduction of c-Myc level”. The “thermal stability of SAE2 in cells (CETSA)” value at SAE2 in HCT116 cells is recorded as “increased the thermal stability of the enzyme in a dose dependent manner”.

Values taken from publication PMC6524651 (Cell chemical biology, 2018).
